Laboratory results as given in patent US12662469B2 (SIRONAX LTD, priority 2018, dated 2026).

What follows are compounds tested on Cell Necrosis (assay: Cell necrosis assay / cell viability assay (necrosis inhibitor activity)). Settings: necrosis inhibitor activity; EC data for 14-191 extrapolated; read-out: EC50.
Assay type: cell-based
Compound `O=C(N1CC[C@@H](Oc2cccc(Cl)c2)C1)N1N=CCC1c1ccccc1` (stereo partly drawn) [Compound 35, ((R)-3-(3-chlorophenoxy)pyrrolidin-1-yl)(5-phenyl-4,5-dihydro-1H-pyrazol-1-yl)methanone] has an EC50 of 1 to 10 µM.
`O=C(N1CC(Nc2ccccc2)C1)N1N=CCC1c1ccccc1` (stereo not drawn) [Compound 19, (5-phenyl-4,5-dihydro-1H-pyrazol-1-yl)(3-(phenylamino)azetidin-1-yl)methanone] showed an EC50 of 1 to 10 µM.
With `O=C(N1CCN(c2ncc(Cl)cn2)CC1)N1N=CCC1c1ccccc1` (stereo not drawn) [Compound 88, (4-(5-chloropyrimidin-2-yl)piperazin-1-yl)(5-phenyl-4,5-dihydro-1H-pyrazol-1-yl)methanone] the EC50 was 0.001 to 1 µM.
Compound `O=C(N1CC(Oc2ccc(Cl)cc2)C1)N1N=CCC1c1ccccc1` (stereo not drawn) [Compound 65, (3-(4-chlorophenoxy)azetidin-1-yl)(5-phenyl-4,5-dihydro-1H-pyrazol-1-yl)methanone] has an EC50 of 0.001 to 1 µM.
Work on `O=C(N1CC(=Cc2ccc(F)c(F)c2)C1)N1N=CCC1c1cc(F)cc(F)c1` (stereo not drawn) [Compound 140, (3-(3,4-difluorobenzylidene)azetidin-1-yl)(5-(3,5-difluorophenyl)-4,5-dihydro-1H-pyrazol-1-yl)methanone] yielded an EC50 of 0.001 to 1 µM.
`NC(=O)c1c(F)cc(OC2CN(C(=O)N3N=CCC3c3cc(F)cc(F)c3)C2)cc1Cl` (stereo not drawn) [Compound 157] showed an EC50 of 0.001 to 1 µM.
`O=C(N1CC(=Cc2c(F)cccc2F)C1)N1N=CCC1c1cc(F)cc(F)c1` (stereo not drawn) [Compound 133, (3-(2,6-difluorobenzylidene)azetidin-1-yl)(5-(3,5-difluorophenyl)-4,5-dihydro-1H-pyrazol-1-yl)methanone] gave an EC50 of 0.001 to 1 µM.
For `O=C(N1CC(Oc2ccccc2Cl)C1)N1N=CCC1c1ccccc1` (stereo not drawn) [Compound 64, (3-(2-chlorophenoxy)azetidin-1-yl)(5-phenyl-4,5-dihydro-1H-pyrazol-1-yl)methanone], the EC50 was 0.001 to 1 µM.
`Nc1ccnc(N2CCN(C(=O)N3N=CCC3c3ccccc3)CC2)n1` (stereo not drawn) [Compound 102, (4-(4-aminopyrimidin-2-yl)piperazin-1-yl)(5-phenyl-4,5-dihydro-1H-pyrazol-1-yl)methanone] showed an EC50 of 1 to 10 µM.
With `CNC(=O)c1nc(OC2CN(C(=O)N3N=CCC3c3cc(F)cc(F)c3)C2)oc1F` (stereo not drawn) [Compound 172] the EC50 was 0.001 to 1 µM.
With `C[C@@H]1CN(c2ncc(F)cn2)CCN1C(=O)N1N=CCC1c1ccccc1` (stereo partly drawn) [Compound 114B, ((R)-4-(5-fluoropyrimidin-2-yl)-2-methylpiperazin-1-yl)(5-phenyl-4,5-dihydro-1H-pyrazol-1-yl)methanone] the EC50 was 1 to 10 µM.
For `O=C(N1CC(Oc2ccc(F)c(F)c2)C1)N1N=CCC1c1ccccc1` (stereo not drawn) [Compound 66, (3-(3,4-difluorophenoxy)azetidin-1-yl)(5-phenyl-4,5-dihydro-1H-pyrazol-1-yl)methanone], the EC50 was 0.001 to 1 µM.
In the case of `Cc1csc(OC2CN(C(=O)N3N=CCC3c3cc(F)cc(F)c3)C2)n1` (stereo not drawn) [Compound 175], the EC50 is reported as 0.001 to 1 µM.
With `O=C(c1ccccc1)N1CCN(C(=O)N2N=CCC2c2ccccc2)CC1` (stereo not drawn) [Compound 95, (4-benzoylpiperazin-1-yl)(5-phenyl-4,5-dihydro-1H-pyrazol-1-yl)methanone] the EC50 was 1 to 10 µM.
`C[C@H]1CN(c2ncc(F)cn2)CCN1C(=O)N1N=CC[C@@H]1c1cc(F)cc(F)c1` [Compound 118B, ((R)-5-(3,5-difluorophenyl)-4,5-dihydro-1H-pyrazol-1-yl)((S)-4-(5-fluoropyrimidin-2-yl)-2-methylpiperazin-1-yl)methanone] showed an EC50 of 0.001 to 1 µM.
`O=C(N1CC(Oc2ccc(F)cc2F)C1)N1N=CC[C@H]1c1cc(F)cc(F)c1` [Compound 142] gave an EC50 of 0.001 to 1 µM.
In the case of `O=C(N1CC[C@@H](Oc2ccccc2F)C1)N1N=CCC1c1ccccc1` (stereo partly drawn) [Compound 31, ((R)-3-(2-fluorophenoxy)pyrrolidin-1-yl)(5-phenyl-4,5-dihydro-1H-pyrazol-1-yl)methanone], the EC50 is reported as 0.001 to 1 µM.

Same assay, conditions: necrosis inhibitor activity; compounds outside 14-191; read-out: EC50
Work on `O=C1CCc2ccc(OC3CN(C(=O)N4N=CC[C@H]4c4cc(F)cc(F)c4)C3)cc2N1` [Compound 206, (S)-7-((1-(5-(3,5-difluorophenyl)-4,5-dihydro-1H-pyrazole-1-carbonyl)azetidin-3-yl)oxy)-3,4-dihydroquinolin-2(1H)-one] yielded an EC50 of 0.001 to 1 µM.
`O=C1COc2ccc(OC3CN(C(=O)N4N=CC[C@H]4c4cc(F)cc(F)c4)C3)cc2N1` [Compound 201, (S)-6-((1-(5-(3,5-difluorophenyl)-4,5-dihydro-1H-pyrazole-1-carbonyl)azetidin-3-yl)oxy)-2H-benzo[b][1,4]oxazin-3(4H)-one] was tested, and the EC50 was 0.001 to 1 µM.
Compound `NC(=O)c1ccc(OC2CN(C(=O)N3N=CCC3c3cc(F)cc(F)c3)C2)cc1Cl` (stereo not drawn) [Compound 227, 2-chloro-4-((1-(5-(3,5-difluorophenyl)-4,5-dihydro-1H-pyrazole-1-carbonyl)azetidin-3-yl)oxy)benzamide] has an EC50 of 0.001 to 1 µM.
`O=C(N1CC[C@@H](Oc2cccc(Cl)c2)C1)N1N=CCC1c1ccccc1` (stereo partly drawn) [Compound 35, ((R)-3-(3-chlorophenoxy)pyrrolidin-1-yl)(5-phenyl-4,5-dihydro-1H-pyrazol-1-yl)methanone] was tested, and the EC50 was 0.001 to 1 µM.
Compound `O=C(N1CC(CN2Cc3cn[nH]c3C2)C1)N1N=CC[C@H]1c1cc(F)cc(F)c1` [Compound 375, (S)-(5-(3,5-difluorophenyl)-4,5-dihydro-1H-pyrazol-1-yl)(3-((4,6-dihydropyrrolo[3,4-c]pyrazol-5(1H)-yl)methyl)azetidin-1-yl)methanone] has an EC50 of 0.001 to 1 µM.
Compound `O=C(Nc1nc(N2CCN(C(=O)N3N=CC[C@H]3c3cc(F)cc(F)c3)CC2)ncc1F)C1CCCC1` [Compound 325, (S)—N-(2-(4-(5-(3,5-difluorophenyl)-4,5-dihydro-1H-pyrazole-1-carbonyl)piperazin-1-yl)-5-fluoropyrimidin-4-yl)cyclopentanecarboxamide] has an EC50 of 0.001 to 1 µM.
`O=C(N1CC(=Cc2ccc(Cl)cc2Cl)C1)N1N=CC[C@H]1c1cc(F)cc(F)c1` [Compound 314, (S)-(3-(2,4-dichlorobenzylidene)azetidin-1-yl)(5-(3,5-difluorophenyl)-4,5-dihydro-1H-pyrazol-1-yl)methanone] was tested, and the EC50 was 0.001 to 1 µM.
Work on `CNC(=O)c1nc(OC2CN(C(=O)N3N=CC[C@H]3c3cc(F)cc(F)c3)C2)sc1Cl` [Compound 273, (S)-5-chloro-2-((1-(5-(3,5-difluorophenyl)-4,5-dihydro-1H-pyrazole-1-carbonyl)azetidin-3-yl)oxy)-N-methylthiazole-4-carboxamide] yielded an EC50 of 0.001 to 1 µM.
In the case of `N#Cc1cc(O[C@@H]2CCN(C(=O)N3N=CC[C@H]3c3cc(F)cc(F)c3)C2)ncn1` [Compound 360, 6-(((R)-1-((S)-5-(3,5-difluorophenyl)-4,5-dihydro-1H-pyrazole-1-carbonyl)pyrrolidin-3-yl)oxy)pyrimidine-4-carbonitrile], the EC50 is reported as 0.001 to 1 µM.
In the case of `N#Cc1nccc(N[C@@H]2CCN(C(=O)N3N=CC[C@H]3c3cc(F)cc(F)c3)C2)n1` [Compound 348], the EC50 is reported as 0.001 to 1 µM.
`O=C(N1CC(=Cc2ccc(Cl)nc2F)C1)N1N=CC[C@H]1c1cncc(F)c1` [Compound 294, (S)-(3-((6-chloro-2-fluoropyridin-3-yl)methylene)azetidin-1-yl)(5-(5-fluoropyridin-3-yl)-4,5-dihydro-1H-pyrazol-1-yl)methanone] gave an EC50 of 0.001 to 1 µM.
For `N#Cc1cc(F)cc([C@@H]2CC=NN2C(=O)N2CC(=Cc3cc4[nH]nc(F)c4cc3F)C2)c1` [Compound 297, (S)-3-(1-(3-((3,5-difluoro-1H-indazol-6-yl)methylene)azetidine-1-carbonyl)-4,5-dihydro-1H-pyrazol-5-yl)-5-fluorobenzonitrile], the EC50 was 0.001 to 1 µM.
For `O=C(NC1CCCCC1)N1N=CCC1c1ccccc1` (stereo not drawn) [Compound 10, N-cyclohexyl-5-phenyl-4,5-dihydro-1H-pyrazole-1-carboxamide], the EC50 was 1 to 10 µM.
Compound `O=C(N1CC(Oc2ccc(-c3ncc[nH]3)cc2)C1)N1N=CC[C@H]1c1cc(F)cc(F)c1` [Compound 219, (S)-(3-(4-(1H-imidazol-2-yl)phenoxy)azetidin-1-yl)(5-(3,5-difluorophenyl)-4,5-dihydro-1H-pyrazol-1-yl)methanone] has an EC50 of 0.001 to 1 µM.
For `CNC(=O)c1cc2sc(OC3CN(C(=O)N4N=CC[C@H]4c4cc(F)cc(F)c4)C3)nc2[nH]1` [Compound 258, (S)-2-((1-(5-(3,5-difluorophenyl)-4,5-dihydro-1H-pyrazole-1-carbonyl)azetidin-3-yl)oxy)-N-methyl-4H-pyrrolo[2,3-d]thiazole-5-carboxamide], the EC50 was 0.001 to 1 µM.
For `N#Cc1cc(OC2CN(C(=O)N3N=CC[C@H]3c3cc(F)cc(F)c3)C2)c(F)cc1F` [Compound 238, (S)-5-((1(5-(3,5-difluorophenyl)-4,5-dihydro-1H-pyrazole-1-carbonyl)azetidin-3-yl)oxy)-2,4-difluorobenzonitrile], the EC50 was 0.001 to 1 µM.
For `N#Cc1cnc(N2CCN(C(=O)N3N=CC[C@H]3c3cc(F)cc(F)c3)CC2)nc1` [Compound 385, (S)-2-(4-(5-(3,5-difluorophenyl)-4,5-dihydro-1H-pyrazole-1-carbonyl)piperazin-1-yl)pyrimidine-5-carbonitrile], the EC50 was 0.001 to 1 µM.
For `O=C(N1CC(Oc2ncc(F)cc2F)C1)N1N=CCC1c1cc(F)cc(F)c1` (stereo not drawn) [Compound 210, (5-(3,5-difluorophenyl)-4,5-dihydro-1H-pyrazol-1-yl)(3-((3,5-difluoropyridin-2-yl)oxy)azetidin-1-)methanone], the EC50 was 0.001 to 1 µM.
With `O=C(c1cc2sc(OC3CN(C(=O)N4N=CC[C@H]4c4cc(F)cc(F)c4)C3)nc2[nH]1)N1CCC1` [Compound 261, (S)-azetidin-1-yl(2-((1-(5-(3,5-difluorophenyl)-4,5-dihydro-1H-pyrazole-1-carbonyl)azetidin-3-yl)oxy)-4H-pyrrolo[2,3-d]thiazol-5-yl)methanone] the EC50 was 0.001 to 1 µM.
With `COc1nc(O[C@@H]2CCN(C(=O)N3N=CC[C@H]3c3cc(F)cc(F)c3)C2)ncc1F` [Compound 363, ((S)-5-(3,5-difluorophenyl)-4,5-dihydro-1H-pyrazol-1-yl)((R)-3-((5-fluoro-4-methoxypyrimidin-2-yl)oxy)pyrrolidin-1-yl)methanone] the EC50 was 0.001 to 1 µM.
In the case of `N#Cc1csc(OC2CN(C(=O)N3N=CCC3c3cncc(F)c3)C2)n1` (stereo not drawn) [Compound 281, 2-((1-(5-(5-fluoropyridin-3-yl)-4,5-dihydro-1H-pyrazole-1-carbonyl)azetidin-3-yl)oxy)thiazole-4-carbonitrile], the EC50 is reported as 0.001 to 1 µM.
Work on `O=C(N1CCN(c2ncc3cn[nH]c3n2)CC1)N1N=CC[C@H]1c1cc(F)cc(F)c1` [Compound 260, (S)-(4-(1H-pyrazolo[3,4-d]pyrimidin-6-yl)piperazin-1-yl)(5-(3,5-difluorophenyl)-4,5-dihydro-1H-pyrazol-1-yl)methanone] yielded an EC50 of 0.001 to 1 µM.
